Source: patent publication US20240335438A1, “TARGETING DOT1L AND SMARCA4/2 FOR THE TREATMENT OF MLLR LEUKEMIA” (DANA-FARBER CANCER INSTITUTE, INC., priority 2021, published 2024)
“Also recorded” adds a separate entry of the source.

Columns and labels:
MLL-AF9 targets = assay: RNA sequencing of MLL-AF9 targets (heatmap, GSEA) in MOLM13 cells; type: cell-based; settings: EPZ5676 1.25 μM 4 days, S31 1 μM 6-10 hr, FIG. 11A
Protocol: MOLM13 cells were primed with 1.25 μM of EPZ5676 or DMSO for 4 days. At day 5, additional S31 (1 μM) or DMSO was added for another 6-10 hr. Cells were harvested and subjected to RNA isolation. Isolated RNA was sent to Novogene (USA) for RNA sequencing. Expression values of MLL-AF9 targets from each treatment group were plotted in heatmap (Morpheus) (FIG. 11A). GSEA analysis was performed by GSEA software 4.1.0 (Broad Institute) (FIG. 11B).
The molecular interdependency between DOT1L inhibition and SMARCA4/2 inactivation was explored using RNA-seq in MOLM13 cells treated with DMSO. S31. EPZ5676 and S31+EPZ5676. Persistent expression of MLL fusion targets maintained the leukemic transformation as a stem cell-like state. […] To define a detailed regulatory pattern of the effects of SMARCA4/2 and DOT1L on these genes, the RNA-seq results were plotted in a heatmap and identified one subset of genes are of particular interest. […] However, the combination of the two induced significant reduction of genes such as MYB and FLT3, which are critical for MLLr leukemia proliferation. S31 sensitized such MLL-AF9) targets to EPZ5676. This was confirmed via Q-PCR.

MLL rearranged cells = settings: cited from earlier work
[1] = tested on: MLLr acute myeloid leukemia (AML); settings: cited from earlier work
SMARCA4 [2] = target: T1, SMARCA4 (Homo sapiens, UniProt P51532); assay: DSF assay (Protein Thermal Shift Dye Kit), SMARCA4 binding; settings: 30 min incubation, indicated ratios, FIG. 1A
Protocol: (§1) Recombinant SMARCA4 and SMARCA2 proteins were incubated with S31 at indicated ratios. After 30 min of incubation, DSF assay was performed using Protein Thermal Shift™ Dye Kit (ThermoFisher™) according to manufacture instructions (FIG. 1A).

SMARCA2 [3] = target: T2, SMARCA2 (Homo sapiens, UniProt P51531); assay: DSF assay (Protein Thermal Shift Dye Kit), SMARCA2 binding; settings: 30 min incubation, indicated ratios, FIG. 1A
Protocol: as §1

His-CRBN = His-CRBN (Homo sapiens, UniProt Q96SW2); assay: CRBN binding, biotin-pomalidomide probe with streptavidin donor and nickel chelate acceptor beads; settings: 50 nM His-CRBN, 1 hr, FIG. 1B
Protocol: 50 nM of His-CRBN was incubated with biotinylated probe (biotin-pomalidomide), streptavidin donor beads (PerkinElmer®), nickel chelate acceptor beads (PerkinElmer®) and compounds (S31, PFI3 or pomalidomide at indicated concentrations) for 1 hr. After incubation, […] was read according to manufacture instructions (FIG. 1B).

cleaved PARP = assay: Cleaved PARP expression (apoptosis); type: cell-based; settings: after 6 hours of treatment
Protocol: (§2) MOLM13 WT and CRBN KO cells were treated with 1 μM of S31 at indicated time points. Cell lysates were harvested, and proteins were extracted using RIPA buffer.
Chemical inhibition of targeted proteins offered the opportunity to understand the function and therapeutic potential of the targets with temporal control. There are several small molecule inhibitors that have been reported to target SMARCA2/4. […] Therefore, PROTACs, bridging small molecules that recruit the target protein into proximity with the E3 ligase system to initiate proteasomal degradation of targeted proteins inside the cells, were developed to target SMARCA2/4. The strategy has recently been described and utilized for the depletion of multiple targets including BRD4, FKBP12, ERR, RIPK2 and BRD9. Compound (1) (S31) is a molecule that contains phthalimide (thalidomide, lenalidomide and pomalidomide, also known as IMiDs®), a CRBN binder, and a SMARCA4/2 binder that are linked via an alkyl linker. The PROTAC dimerized targeted proteins and CRBN, and induced polyubiquitylation followed by proteasomal degradation of SMARCA4/2.

[4] = tested on: panel of leukemia cell lines; assay: Growth inhibition in a panel of leukemia cell lines (ATPlite); type: cell-based; settings: 72 hr, FIG. 3
Protocol: S31 was treated in a panel of leukemia cell lines with 10 doses ranging from 10 μM to 1 nM. After 72 hr of treatment, growth inhibition was determined by ATPlite™ (PerkinElmer®). IC50 was calculated by GraphPad Prism® 7 (FIG. 3).

SMARCA4 [5] = target: T1, SMARCA4; assay: SMARCA4 degradation by Western Blotting in MOLM13 cells; type: cell-based; set-up: endogenous in cells; host or cells: MOLM13 WT and CRBN KO cells; settings: MOLM13 WT and CRBN KO cells, 1 μM, indicated time points, FIG. 2
Protocol: as §2

SMARCA2 [6] = target: T2, SMARCA2; assay: SMARCA2 degradation by Western Blotting in MOLM13 cells; type: cell-based; set-up: endogenous in cells; host or cells: MOLM13 WT and CRBN KO cells; settings: MOLM13 WT and CRBN KO cells, 1 μM, indicated time points, FIG. 2
Protocol: as §2

T2 sequence (P51531 whole entry): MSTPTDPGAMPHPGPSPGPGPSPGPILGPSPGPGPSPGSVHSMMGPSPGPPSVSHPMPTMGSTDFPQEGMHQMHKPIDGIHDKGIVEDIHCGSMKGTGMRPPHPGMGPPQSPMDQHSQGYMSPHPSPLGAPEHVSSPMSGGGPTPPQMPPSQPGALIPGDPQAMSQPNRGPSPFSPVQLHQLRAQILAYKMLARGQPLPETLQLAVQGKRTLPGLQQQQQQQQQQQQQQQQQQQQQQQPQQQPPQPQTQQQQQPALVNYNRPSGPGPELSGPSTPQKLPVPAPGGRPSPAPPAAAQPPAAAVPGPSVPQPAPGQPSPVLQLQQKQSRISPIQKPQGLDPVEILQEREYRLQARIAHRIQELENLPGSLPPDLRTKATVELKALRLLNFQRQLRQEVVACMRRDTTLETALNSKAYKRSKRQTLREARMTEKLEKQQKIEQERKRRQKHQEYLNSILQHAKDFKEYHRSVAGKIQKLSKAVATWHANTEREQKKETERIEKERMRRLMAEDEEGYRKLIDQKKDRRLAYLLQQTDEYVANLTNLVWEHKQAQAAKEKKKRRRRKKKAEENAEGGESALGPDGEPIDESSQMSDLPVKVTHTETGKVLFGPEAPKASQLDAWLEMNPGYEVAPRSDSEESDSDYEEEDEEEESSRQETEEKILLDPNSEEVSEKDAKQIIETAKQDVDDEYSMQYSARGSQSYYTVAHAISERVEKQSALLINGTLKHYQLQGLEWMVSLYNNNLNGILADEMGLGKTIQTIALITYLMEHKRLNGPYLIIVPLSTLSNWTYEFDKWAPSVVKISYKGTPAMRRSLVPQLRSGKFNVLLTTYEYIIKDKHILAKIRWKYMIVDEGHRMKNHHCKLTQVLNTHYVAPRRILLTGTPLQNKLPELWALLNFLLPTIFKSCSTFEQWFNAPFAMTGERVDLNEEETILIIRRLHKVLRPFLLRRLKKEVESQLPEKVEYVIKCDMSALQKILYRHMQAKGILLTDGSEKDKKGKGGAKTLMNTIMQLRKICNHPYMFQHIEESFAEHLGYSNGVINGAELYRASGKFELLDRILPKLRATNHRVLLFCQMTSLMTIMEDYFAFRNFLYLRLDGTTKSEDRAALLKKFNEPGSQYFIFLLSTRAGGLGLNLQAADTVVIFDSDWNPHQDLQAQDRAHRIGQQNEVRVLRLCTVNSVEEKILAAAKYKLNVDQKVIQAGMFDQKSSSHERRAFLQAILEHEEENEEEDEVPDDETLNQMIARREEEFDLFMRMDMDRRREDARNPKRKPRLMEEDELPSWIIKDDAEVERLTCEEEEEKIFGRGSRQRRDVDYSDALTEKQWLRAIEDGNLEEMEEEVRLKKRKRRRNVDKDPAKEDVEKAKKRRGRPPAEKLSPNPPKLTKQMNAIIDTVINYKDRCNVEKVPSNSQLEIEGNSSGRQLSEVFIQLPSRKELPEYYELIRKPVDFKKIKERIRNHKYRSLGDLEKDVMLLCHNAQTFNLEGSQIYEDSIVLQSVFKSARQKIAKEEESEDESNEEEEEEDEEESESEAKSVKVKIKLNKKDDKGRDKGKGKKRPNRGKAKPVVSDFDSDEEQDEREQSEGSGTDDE
T1 sequence (P51532 whole entry): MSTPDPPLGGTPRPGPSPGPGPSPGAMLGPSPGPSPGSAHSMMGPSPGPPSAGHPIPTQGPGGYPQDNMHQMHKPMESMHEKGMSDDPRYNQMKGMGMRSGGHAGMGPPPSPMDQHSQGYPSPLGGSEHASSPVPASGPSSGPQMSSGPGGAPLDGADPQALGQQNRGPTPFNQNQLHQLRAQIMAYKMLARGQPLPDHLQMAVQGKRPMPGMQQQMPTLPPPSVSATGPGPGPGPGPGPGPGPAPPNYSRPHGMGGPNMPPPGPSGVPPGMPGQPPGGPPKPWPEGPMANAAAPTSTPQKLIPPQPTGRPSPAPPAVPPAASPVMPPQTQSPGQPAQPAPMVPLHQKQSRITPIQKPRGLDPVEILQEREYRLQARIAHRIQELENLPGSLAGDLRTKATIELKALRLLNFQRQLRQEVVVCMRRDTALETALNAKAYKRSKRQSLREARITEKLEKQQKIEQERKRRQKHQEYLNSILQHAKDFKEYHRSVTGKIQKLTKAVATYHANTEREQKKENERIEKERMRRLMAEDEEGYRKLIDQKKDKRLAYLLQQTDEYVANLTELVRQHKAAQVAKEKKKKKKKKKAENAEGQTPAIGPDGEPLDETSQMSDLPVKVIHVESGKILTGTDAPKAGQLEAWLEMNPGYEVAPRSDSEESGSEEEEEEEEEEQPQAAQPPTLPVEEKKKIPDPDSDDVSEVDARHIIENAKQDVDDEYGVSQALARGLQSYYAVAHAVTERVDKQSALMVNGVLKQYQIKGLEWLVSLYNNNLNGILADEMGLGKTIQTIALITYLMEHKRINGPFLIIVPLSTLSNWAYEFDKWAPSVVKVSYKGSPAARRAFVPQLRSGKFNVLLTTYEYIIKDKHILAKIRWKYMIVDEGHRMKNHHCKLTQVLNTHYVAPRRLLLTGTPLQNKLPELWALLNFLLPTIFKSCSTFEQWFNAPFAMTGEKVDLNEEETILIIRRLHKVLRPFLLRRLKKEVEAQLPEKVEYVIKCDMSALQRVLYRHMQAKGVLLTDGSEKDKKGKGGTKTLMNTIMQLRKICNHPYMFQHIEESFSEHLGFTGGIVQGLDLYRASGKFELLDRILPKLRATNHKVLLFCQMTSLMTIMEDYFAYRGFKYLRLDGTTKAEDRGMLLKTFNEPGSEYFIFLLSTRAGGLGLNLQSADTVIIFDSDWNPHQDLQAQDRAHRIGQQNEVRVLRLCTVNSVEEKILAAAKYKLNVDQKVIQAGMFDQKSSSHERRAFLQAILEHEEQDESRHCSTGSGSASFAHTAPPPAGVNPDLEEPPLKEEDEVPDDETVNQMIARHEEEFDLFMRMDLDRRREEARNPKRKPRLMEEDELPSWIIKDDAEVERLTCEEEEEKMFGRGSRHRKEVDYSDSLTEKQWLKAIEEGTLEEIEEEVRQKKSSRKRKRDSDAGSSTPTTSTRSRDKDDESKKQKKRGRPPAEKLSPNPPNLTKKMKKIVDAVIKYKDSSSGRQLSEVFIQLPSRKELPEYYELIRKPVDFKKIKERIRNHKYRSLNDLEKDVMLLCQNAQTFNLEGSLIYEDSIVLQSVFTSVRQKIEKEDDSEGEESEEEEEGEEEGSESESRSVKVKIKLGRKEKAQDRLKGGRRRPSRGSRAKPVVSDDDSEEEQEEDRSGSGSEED
His-CRBN, sequence (Q96SW2 whole entry): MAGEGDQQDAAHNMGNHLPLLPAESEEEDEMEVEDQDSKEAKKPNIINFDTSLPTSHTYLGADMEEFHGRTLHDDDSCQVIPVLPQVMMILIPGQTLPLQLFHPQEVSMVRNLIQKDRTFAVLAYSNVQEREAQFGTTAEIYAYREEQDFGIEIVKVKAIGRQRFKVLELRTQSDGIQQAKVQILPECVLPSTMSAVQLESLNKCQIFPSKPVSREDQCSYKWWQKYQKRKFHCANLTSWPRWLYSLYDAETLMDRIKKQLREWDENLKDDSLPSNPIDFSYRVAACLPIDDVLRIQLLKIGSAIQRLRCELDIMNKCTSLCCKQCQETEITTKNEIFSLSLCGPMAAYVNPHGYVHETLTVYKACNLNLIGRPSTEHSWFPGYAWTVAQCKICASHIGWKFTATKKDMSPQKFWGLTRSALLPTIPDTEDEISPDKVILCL

| binding to SMARCA4 (SMARCA4 [2]) | binding to SMARCA2 (SMARCA2 [3]) | binding to CRBN (His-CRBN) | IC50 of cell growth ([4]; 10 doses from 10 μM to 1 nM) | SMILES | expression of MLL-AF9 target genes (subset such as MYB and FLT3), RNA-seq heatmap (MLL-AF9 targets) | anti-proliferative effects (MLL rearranged cells) | clinical response ([1]; monotherapy) | side effect profile ([1]; treatment of MLLr AML) | cleaved PARP expression, indicating apoptosis (cleaved PARP) | cell growth inhibition / cytotoxicity [4] | SMARCA4 degradation (SMARCA4 [5]) | SMARCA2 degradation (SMARCA2 [6]) |
| --- | --- | --- | --- | --- | --- | --- | --- | --- | --- | --- | --- | --- |
| – | – | – | – | CC(C)N(C[C@H]1OC(n2cnc3c(N)ncnc32)[C@H](O)[C@@H]1O)C1CC(CCc2nc3cc(C(C)(C)C)ccc3[nH]2)C1 (stereo partly drawn) [EPZ5676, (2R,3R,4S,5R)-2-(6-amino-9H-purin-9-yl)-5-((((1s,3R)-3-(2-(5-(tert-butyl)-1H-benzo[d]imidazol-2-yl)ethyl)cyclobutyl)(isopropyl)amino)methyl)tetrahydrofuran-3,4-diol] | could not—or just slightly—affect the gene expression | remarkably selective anti-proliferative effects | low effective responses and subsequent relapses | promising side effect profile | – | – | – | – |
| binds | binds | binds | low nanomolar range | O=C1CCC(N2C(=O)c3ccc(NCCCCCCCCOCCc4cccc(N5C[C@H]6C[C@@H]5CN6/C=C/C(=O)c5ccccc5O)c4)cc3C2=O)C(=O)N1 (stereo partly drawn) [S31, 2-(2,6-dioxopiperidin-3-yl)-5-((8-(3-((1R,4R)-5-((E)-3-(2-hydroxyphenyl)-3-oxoprop-1-en-1-yl)-2,5-diazabicyclo[2.2.1]heptan-2-yl)phenethoxy)octyl)amino)isoindoline-1,3-dione] | could not—or just slightly—affect the gene expression; also recorded: sensitizes MLL-AF9 targets to EPZ5676 | – | – | – | cleaved PARP expression abundance was observed | profound inhibition; also recorded: induces cytotoxicity | degraded; also recorded: degradation was observed | degraded; also recorded: degradation was observed |
